Data published in paper PMC9781652, “Dinuclear Iron Complexes of Iminopyridine-Based Ligands as Selective Cytotoxins for Tumor Cells and Inhibitors of Cancer Cell Migration” (Pharmaceutics, 2022).

How the values were obtained:
[1] = system: NCI-H460 human lung carcinoma cells; test: Cell proliferation assay (MTT), NCI-H460; format: cell-based; settings: for IC50: 72 h exposure, MTT, mean ± SE; for SI NCI-H460 (selectivity index): ratio IC50 CCD-18Co / IC50 NCI-H460
Experimental: (§1) Cells were seeded into 96-well plates at densities of 1500 cells per well for OVCAR-8, 1900 for NCI-H460, and 4000 for CCD-18Co. After 24 h of incubation, they were treated for 72 h with different concentrations of the compounds (concentration range: 0.01 to 6 μM for OVCAR-8; 0.05 to 2 μM for NCI-H460; and 0.07 to 70 μM for CCD-18Co cells). When indicated, cells were also incubated with 30 µM of the ROS scavenger Manganese (III) 5,10,15,20-tetrakis (4-benzoic acid) porphyrin (MnTBAP) (Calbiochem, San Diego, CA, USA). Cell viability was measured using the MTT assay as previously described. The IC50 value corresponds to the concentration of the assayed compound that is required to inhibit the cell proliferation by 50%, and was calculated by linear interpolation from the obtained growth curves. All data are reported as the mean ± standard error (SE) calculated from at least three independent experiments with three replicates in each.

[2] = system: CCD-18Co human colon fibroblasts; test: Cell proliferation assay (MTT), non-tumor CCD-18Co; format: cell-based; settings: non-tumor cells, 72 h exposure, mean ± SE
Experimental: as §1

[3] = system: OVCAR-8 human ovarian carcinoma cells; test: Cell proliferation assay (MTT), OVCAR-8; format: cell-based; settings: for IC50: 72 h exposure, MTT, mean ± SE; for SI OVCAR-8 (selectivity index): ratio IC50 CCD-18Co / IC50 OVCAR-8
Experimental: as §1

supercoiled pUC18 DNA = test: DNA interaction analysis by agarose gel electrophoresis; format: biochemical; settings: highest concentrations, 24 h, 37 °C, with H2O2
Experimental: The interaction of DNA with the compounds was monitored in an agarose gel electrophoresis as previously described. […] Two other samples were included in the assays: a sample of pUC18 DNA alone as negative control and a sample of pUC18 DNA with 5 µg/mL cisplatin for comparison purposes. […] Gels were stained with ethidium bromide (1 µg/mL in TBE) for 15 min and DNA bands were visualized under UV light.

OVCAR-8 cells [4] = test: Flow cytometric analysis of ROS generation (carboxy-H2DCFDA), OVCAR-8; format: cell-based, human; settings: OVCAR-8, 2, 4.5 or 9 µM, 48 or 72 h
Experimental: (§2) ROS generation after treatment with the compounds was analyzed using a carboxy-20, 70-dichlorodihydrofluorescein diacetate probe (carboxy-H2DCFDA) (Invitrogen, Waltham, MA). ROS species oxidize this molecule to green fluorescent dichlorofluorescein (DCF), allowing their detection inside the cells using a flow cytometer. A total of 24 h prior to treatments cells were seeded at 70,000 cells/well in 6-well plates in phenol red-free RPMI. Then, they were treated for 48 or 72 h at 37 °C with different concentrations of compound 10 (0.7, 1.5, or 3 μM for NCI-H460 cells and 2, 4.5, or 9 μM for OVCAR-8 cells) for 48 or 72 h at 37 °C. After treatments, cells were washed with PBS and incubated for 30 min at 37 °C in the dark with either 1 μM (NCI-H460 cells) or 0.5 μM (OVCAR-8 cells) carboxy-H2DCFDA diluted in PBS. Cells were then collected with phenol red-free trypsin and analyzed using a NovoCyte Flow cytometer. NovoExpress software (ACEA Biosciences, San Diego, CA, USA) was used to stablish the geometric mean fluorescence intensity of 10,000 cells.

NCI-H460 cells [5] = test: Flow cytometric analysis of ROS generation (carboxy-H2DCFDA), NCI-H460; format: cell-based, human; settings: NCI-H460, 0.7, 1.5 or 3 µM, 48 or 72 h
Experimental: as §2

[6] = system: MDA-MB-231 human breast carcinoma cells; test: Cytotoxicity on MDA-MB-231; format: cell-based
MDA-MB-231 cells = test: Transwell cell migration assay; format: cell-based, human; settings: 0.1 µM, 24, 48 or 72 h
Experimental: MDA-MB-231 cells were seeded into the upper chamber of a 24-well transwell insert (8 µm pore size; Sarstedt, Nümbrecht, Germany) at a density of 12,000 cells/0.5 mL RPMI 1640 medium with 0.5% FBS and treated with 0.1 µM compound 10 (corresponding to an IC20). The lower chamber was filled with 0.5 mL RPMI 1640 medium with 10% FBS as a chemoattractant. The cells on the upper side of the inserts were removed with a cotton swab after 24, 48, or 72 h of incubation at 37 °C. Cells that migrated to the lower side of the inserts were fixed for 30 min with 4% paraformaldehyde and stained for 20 min at room temperature with 0.2% crystal violet solution. Ten randomly selected fields at 200× magnification were counted using an Olympus CKX41 inverted microscope (Tokyo, Japan).

OVCAR-8 cells [7] = test: Apoptosis analysis, Annexin V-Alexa Fluor 488/PI flow cytometry, OVCAR-8; format: cell-based, human; settings: OVCAR-8, 1.65 µM, 72 h
Experimental: (§3) Quantitative analysis of apoptotic cell death caused by compound 10 treatment was carried out by flow cytometry using the Alexa Fluor 488 annexin V/PI Vybrant Apoptosis Assay Kit (Molecular Probes, Eugene, OR, USA) as previously described. Briefly, NCI-H460 cells (7 × 10^4 per well) and OVCAR-8 cells (8 × 10^4 per well) were seeded into 6-well plates and then treated with compound 10 (0.64 μM for NCI-H460 and 1.65 μM for OVCAR-8) for 72 h in serum starved medium. After treatment, we collected attached and floating cells, washed them in cold PBS and stained them for 15 min in the dark with Annexin V-Alexa Fluor 488 and propidium iodide (PI) at room temperature. Cells were analyzed using NovoCyte Flow Cytometer (ACEA Biosciences, San Diego, CA, USA) and NovoExpress software (ACEA Biosciences, San Diego, CA, USA). At least 10,000 cells within the gated region were analyzed.

OVCAR-8 cells [8] = test: Cell cycle phase analysis (PI flow cytometry), OVCAR-8; format: cell-based, human; settings: OVCAR-8, 0.8 µM, 72 h
Experimental: (§4) NCI-H460 and OVCAR-8 cells were treated for 72 h with compound 10 (0.3 μM for NCI-H460 and 0.8 μM for OVCAR-8). Then, they were collected and fixed at −20 °C with 70% ethanol for at least 1 h. Fixed cells washed with cold PBS were resuspended in PBS at a cell density of 1–2 × 10^6 cells/mL, treated at 37 °C for 30 min with ribonuclease A (100 μg/mL) and PI (40 μg/mL) (Molecular Probes, Eugene, OR, USA), and analyzed by flow cytometric. At least 10,000 cells within the gated region were analyzed on a NovoCyte Flow Cytometer (ACEA Biosciences, San Diego, CA, USA). Cell cycle distribution was analyzed using NovoExpress software (ACEA Biosciences, San Diego, CA, USA).

NCI-H460 cells [9] = test: Cell cycle phase analysis (PI flow cytometry), NCI-H460; format: cell-based, human; settings: NCI-H460, 0.3 µM, 72 h
Experimental: as §4

NCI-H460 cells [10] = test: Apoptosis analysis, Annexin V-Alexa Fluor 488/PI flow cytometry, NCI-H460; format: cell-based, human; settings: NCI-H460, 0.64 µM, 72 h
Experimental: as §3

CC#N.CC#N.CC#N.CC#N.Cc1cc(N=Cc2ccc(Br)cn2)c2c(c1)C1CC(O2)Oc2c(N=Cc3ccc(Br)cn3)cc(C)cc21.Cc1cc(N=Cc2ccc(Br)cn2)c2c(c1)C1CC(O2)Oc2c(N=Cc3ccc(Br)cn3)cc(C)cc21.F[B-](F)(F)F.F[B-](F)(F)F.F[B-](F)(F)F.F[B-](F)(F)F.[Fe+2].[Fe+2] [Compound 9, [Fe23_2(CH3CN)4](BF4)4]
IC50 [1]: 0.6 ± 0.04 µM
SI NCI-H460 (selectivity index) [1]: 12.0
IC50 [2]: 7.2 ± 3.4 µM
IC50 [3]: 1.78 ± 0.16 µM
SI OVCAR-8 (selectivity index) [3]: 4.1

CC#N.CC#N.CC#N.CC#N.Cc1cc(N=Cc2cccc(C)n2)c2c(c1)C1CC(O2)Oc2c(N=Cc3cccc(C)n3)cc(C)cc21.Cc1cc(N=Cc2cccc(C)n2)c2c(c1)C1CC(O2)Oc2c(N=Cc3cccc(C)n3)cc(C)cc21.F[B-](F)(F)F.F[B-](F)(F)F.F[B-](F)(F)F.F[B-](F)(F)F.[Fe+2].[Fe+2] [Compound 10, [Fe2(4)2(CH3CN)4](BF4)4]
Effect on pUC18 DNA in the presence of H2O2 at the highest concentrations (supercoiled pUC18 DNA): total DNA degradation
ROS levels (fold-increase vs control) (OVCAR-8 cells [4]): ROS levels rise with time and concentration
IC50 [1]: 0.64 ± 0.05 µM
SI NCI-H460 (selectivity index) [1]: 33.7
ROS levels (fold-increase vs control) (NCI-H460 cells [5]): ROS levels rise with time and concentration
IC50 ([6]; MDA-MB-231 cells): 0.25 µM
fold lower IC50 than that described for cisplatin, MDA-MB-231 ([6]; cisplatin value from literature): about 250 fold
IC20 ([6]; concentration used in migration assay, corresponding to an IC20): 0.1 µM
IC50 [2]: 21.6 ± 3.18 µM
Migration of MDA-MB-231 cells (MDA-MB-231 cells): significantly reduces the migration
IC50 [3]: 1.65 ± 0.26 µM
Cellular viability with vs without ROS scavenger MnTBAP ([3]; OVCAR-8, MTT, 30 µM MnTBAP): MnTBAP reduces the antiproliferative effect
SI OVCAR-8 (selectivity index) [3]: 13.1
percentage of cells that enter in apoptosis (early + late) (OVCAR-8 cells [7]): ~66%
Early apoptotic cells (%) (OVCAR-8 cells [7]; serum starved medium): 36.12 ± 2.32%
Late apoptotic cells (%) (OVCAR-8 cells [7]; serum starved medium): 30.82 ± 2.60%
Necrotic cells (%) (OVCAR-8 cells [7]; serum starved medium): 1.27 ± 0.08%
Viable cells (%) (OVCAR-8 cells [7]; serum starved medium): 31.79 ± 3.27%
% G0/G1 (OVCAR-8 cells [8]): 41.91%
% G2/M (OVCAR-8 cells [8]): 28.36%
% S (OVCAR-8 cells [8]): 23.09%
% Sub-G1 (OVCAR-8 cells [8]): 6.61%
Effect on cell cycle phase distribution vs untreated cells (OVCAR-8 cells [8]): shift in the cell population from the G0/G1 phase to the S and G2/M phases
% G0/G1 (NCI-H460 cells [9]): 57.62%
% G2/M (NCI-H460 cells [9]): 15.58%
% S (NCI-H460 cells [9]): 21.71%
% Sub-G1 (NCI-H460 cells [9]): 5.10%
Effect on cell cycle phase distribution vs untreated cells (NCI-H460 cells [9]): do not show significant changes in the cell cycle phase distribution
percentage of cells that enter in apoptosis (early + late) (NCI-H460 cells [10]): about 82%
Early apoptotic cells (%) (NCI-H460 cells [10]; serum starved medium): 13.72 ± 4.34%
Late apoptotic cells (%) (NCI-H460 cells [10]; serum starved medium): 68.61 ± 3.04%
Necrotic cells (%) (NCI-H460 cells [10]; serum starved medium): 1.29 ± 0.27%
Viable cells (%) (NCI-H460 cells [10]; serum starved medium): 16.37 ± 2.32%

CC#N.CC#N.CC#N.CC#N.COc1cccc(C=Nc2cc(C)cc3c2OC2CC3c3cc(C)cc(N=Cc4cccc(OC)n4)c3O2)n1.COc1cccc(C=Nc2cc(C)cc3c2OC2CC3c3cc(C)cc(N=Cc4cccc(OC)n4)c3O2)n1.F[B-](F)(F)F.F[B-](F)(F)F.F[B-](F)(F)F.F[B-](F)(F)F.[Fe+2].[Fe+2] [Compound 11, [Fe25_2(CH3CN)4](BF4)4]
IC50 [1]: 0.5 ± 0.1 µM
SI NCI-H460 (selectivity index) [1]: 24.1
IC50 [2]: 12 ± 1.44 µM
IC50 [3]: 1.4 ± 0.3 µM
SI OVCAR-8 (selectivity index) [3]: 8.6

CC#N.CC#N.CC#N.CC#N.Cc1cc(N=Cc2ccc3ccccc3n2)c2c(c1)C1CC(O2)Oc2c(N=Cc3ccc4ccccc4n3)cc(C)cc21.Cc1cc(N=Cc2ccc3ccccc3n2)c2c(c1)C1CC(O2)Oc2c(N=Cc3ccc4ccccc4n3)cc(C)cc21.F[B-](F)(F)F.F[B-](F)(F)F.F[B-](F)(F)F.F[B-](F)(F)F.[Fe+2].[Fe+2] [Compound 12, [Fe26_2(CH3CN)4](BF4)4]
Effect on pUC18 DNA in the presence of H2O2 at the highest concentrations (supercoiled pUC18 DNA): total DNA degradation
IC50 [1]: 0.49 ± 0.08 µM
SI NCI-H460 (selectivity index) [1]: 8.1
IC50 [2]: 4.05 ± 0.62 µM
IC50 [3]: 1.24 ± 0.27 µM
SI OVCAR-8 (selectivity index) [3]: 3.2
